Test results from patent US7838049B2, “Extracts and compounds for inhibiting tyrosinase activity” (Taipei Medical University, priority 2009, dated 2010).

Key:
[1] = biological target: T1, tyrosinase (Homo sapiens, UniProt P14679); test: Assay of tyrosinase activity in human melanocyte (HEMn) cells; type: cell-based; settings: for inhibitory activity on tyrosinase: HEMn cells treated 24 hours, lysate reacted with L-DOPA, OD475 vs control, FIG. 1 and FIG. 2
T1 construct: Lysis buffer (1% Triton X-100, 1 mM phenylmethylsulfonyl fluoride (PMSF), 1 μg/ml aprotinin, and 10 μg/ml leupeptin) was added to the resulting cells to obtain the cell proteins; host or cells: HEMn human melanocytes, passages 3 to 10
T1 sequence (P14679 19-529): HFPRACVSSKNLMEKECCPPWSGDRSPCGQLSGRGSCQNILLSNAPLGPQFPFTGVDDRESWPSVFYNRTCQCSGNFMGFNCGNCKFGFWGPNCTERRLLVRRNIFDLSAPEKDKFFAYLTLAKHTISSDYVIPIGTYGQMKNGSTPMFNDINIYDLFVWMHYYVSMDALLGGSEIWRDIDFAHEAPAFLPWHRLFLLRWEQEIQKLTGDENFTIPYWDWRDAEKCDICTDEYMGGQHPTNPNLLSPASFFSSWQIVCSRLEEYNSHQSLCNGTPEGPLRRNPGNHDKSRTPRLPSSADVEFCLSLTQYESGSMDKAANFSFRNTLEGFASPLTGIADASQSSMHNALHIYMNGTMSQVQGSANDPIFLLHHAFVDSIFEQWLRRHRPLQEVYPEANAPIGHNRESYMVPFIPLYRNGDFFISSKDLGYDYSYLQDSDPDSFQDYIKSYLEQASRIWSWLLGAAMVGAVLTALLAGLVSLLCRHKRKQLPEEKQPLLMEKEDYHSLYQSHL
Procedure: Human melanocyte (HEMn) cells are cultured with medium 254 containing antibiotics and growth factors (Cascade Biologics, Inc., Portland, Oreg., USA) in an incubator with 5% CO2 for serial passage. Passages 3 to 10 of the HEMn cells were used in the experiments below.
HEMn cells were further cultured for 48 hours and then the ethyl acetate extract of the invention and the test compounds (MHL-1: 3,4-dihydroxy-5-methoxybiphenyl-2′-O-β-d-glucopyranoside and MHL-2: 3,6-dihydroxy-2,4-dimethoxy-dibenzofuran) were added. After 24 hours, the cells were washed with PBS buffer. Lysis buffer (1% Triton X-100, 1 mM phenylmethylsulfonyl fluoride (PMSF), 1 μg/ml aprotinin, and 10 μg/ml leupeptin) was added to the resulting cells to obtain the cell proteins. The cell proteins were kept at −80° C. Subsequently, the cell proteins were thawed and then centrifuged at 12,000 rpm for 5 minutes. The supernatant was taken for determination of the amount of protein by BCA protein assay. The proteins with different concentrations were added to a 96-well microplate and then PBS buffers were added. L-DOPA was added to the microplate to react with the protein at 37° C. for 1 hour. The absorbance of the solution at 475 nm wavelength was detected. Tyrosinase activity (%)=(OD475 of the sample/OD475 of control)×100.
Arbutin as positive control and 1% DMSO as blank were used in the tyrosinase activity assay stated above. […] MHL-1 and MHL-2 inhibit around 40% and 20% tyrosinase activity, respectively. The ethyl acetate extract and the compounds of the invention are effective in inhibiting tyrosinase.

[2] = biological target: T1, tyrosinase; test: Tyrosinase oxidative activity analysis by L-Dopa staining of SDS-PAGE gels; type: cell-based; settings: HEMn cells treated with 100, 80 and 60 μM of MHL-1; FIG. 3
Procedure: The compound of the invention, MHL-1, with different concentrations was added to HEMn cells. The lysis of HEMn cells, isolation of cell proteins and BCA protein assay were performed on the supernatant obtained as stated in Example 1 so that the amount of the protein could be determined. 10% SDS-polyacrylamide gel electrophoresis (dd-H2O; 10% Acrylamide mix; 1.5M Tris-base pH8.8; 10% SDS; 10% Ammonium persulfate; TEMED) was performed on the resulting protein and the sample buffer (60 mM Tris-HCl, pH 6.8, 2% sodium dodecyl sulfate (SDS), 10% glycerol, 0.01% bromophenol blue) at the same time. The molecular weight of tyrosinase was about 72 kDa. The resulting gels were washed with 0.1 M of PBS (pH 6.8) for 30 minutes and then the protein at the position of 72 kDa reacted with 5 mM L-DOPA in 0.1 M PBS at 37° C. for 1 hour. After the reaction, Quantity One 1-D software was used to determine the amount of protein.

**Q.** Which results are given for `COc1cc(-c2ccccc2OC2OC(CO)C(O)C(O)C2O)cc(O)c1O` [MHL-1, 3,4-dihydroxy-5-methoxybiphenyl-2′-O-β-D-glucopyranoside]?
**A.** inhibitory activity on tyrosinase [1]: around 40%; tyrosinase inhibitory activity compared with arbutin (positive control) ([1]; HEMn cells, FIG. 2): superior activity compared to arbutin; tyrosinase oxidative activity (L-DOPA staining of the 72 kDa band) [2]: the higher the concentration of MHL-1, the lower the tyrosinase oxidative activity

**Q.** `COc1cc2c(oc3c(O)cccc32)c(OC)c1O` [MHL-2, 3,6-dihydroxy-2,4-dimethoxy-dibenzofuran] was tested. Which “inhibitory activity on tyrosinase” value [1] did it give?
**A.** ~20%
